Experimental data from paper PMC6599079 (Nature Communications, 2019).
Where two headings read alike, the source gives them in different places. Square brackets hold non-standard residues; d marks the D form. Ends that are not written are not given here. Met(O) = CS(=O)CC[C@H](N)C(=O)O

How the values were obtained:
[1] = test system: splenic CD8^+ T cells; type: in vivo, C57BL/6 mice; details: for IFNg#: spleen; for CTL response, ICS: file clean_CTLresponse_ICS_new, tissue not given
[2] = target: T1, H-2D^b (Mus musculus, UniProt P01899); experiment: biochemical; type: binding
T1 sequence (P01899 25-362): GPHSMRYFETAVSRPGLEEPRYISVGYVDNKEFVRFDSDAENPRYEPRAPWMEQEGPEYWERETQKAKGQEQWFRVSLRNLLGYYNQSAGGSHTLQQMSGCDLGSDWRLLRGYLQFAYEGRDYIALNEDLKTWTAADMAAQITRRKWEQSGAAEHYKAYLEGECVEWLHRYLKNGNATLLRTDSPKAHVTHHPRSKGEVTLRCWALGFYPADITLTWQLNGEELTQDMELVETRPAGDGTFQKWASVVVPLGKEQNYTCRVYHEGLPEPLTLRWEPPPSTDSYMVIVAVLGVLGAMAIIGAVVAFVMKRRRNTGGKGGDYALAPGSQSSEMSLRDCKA
T1 sequence (P01887 21-119 partner): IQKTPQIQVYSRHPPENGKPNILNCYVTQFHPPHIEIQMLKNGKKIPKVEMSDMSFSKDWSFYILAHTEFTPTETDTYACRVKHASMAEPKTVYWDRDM

[3] = target: T2, H-2K^b (Mus musculus, UniProt P01901); experiment: biochemical; type: binding
T2 sequence (P01901 22-369): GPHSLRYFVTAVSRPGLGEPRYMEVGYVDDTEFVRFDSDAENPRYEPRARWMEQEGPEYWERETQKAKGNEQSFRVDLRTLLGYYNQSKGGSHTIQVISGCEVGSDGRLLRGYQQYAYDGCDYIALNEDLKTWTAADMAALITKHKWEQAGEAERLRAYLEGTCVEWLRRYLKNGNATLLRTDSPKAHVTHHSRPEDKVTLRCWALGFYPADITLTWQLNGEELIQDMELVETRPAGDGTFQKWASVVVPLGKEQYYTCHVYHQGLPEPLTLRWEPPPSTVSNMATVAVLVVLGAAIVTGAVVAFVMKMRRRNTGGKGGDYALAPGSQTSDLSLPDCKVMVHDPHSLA
T2 sequence (P01887 21-119 partner): T1 sequence (P01887 21-119 partner)

[4] = target: H-2b MHC class I (allele not given); experiment: Classical competition assay of peptide binding to purified MHC; restricting allele not printed in the epitope label of this file; set-up: species or system mouse; details: epitope label without allele; file clean_file9_IC50; unit inferred
[5] = 1st EXP, number of IFNg+ CD8 cells = IFNg% (w/o background) x CD8# 5103400, replicate Mouse 2
[6] = 1st EXP, number of IFNg+ CD8 cells = IFNg% (w/o background) x CD8# 5464800, replicate Mouse 3
[7] = 1st EXP, number of IFNg+ CD8 cells = IFNg% (w/o background) x CD8# 5668200, replicate Mouse 4
[8] = 1st EXP, number of IFNg+ CD8 cells = IFNg% (w/o background) x CD8# 5724000, replicate Mouse 5
[9] = 1st EXP, number of IFNg+ CD8 cells = IFNg% (w/o background) x CD8# 6077000, replicate Mouse 1
[10] = 2nd EXP, number of IFNg+ CD8 cells per spleen (CD8# 2541000), Mouse 5
[11] = 2nd EXP, number of IFNg+ CD8 cells per spleen (CD8# 2956300), Mouse 4
[12] = 2nd EXP, number of IFNg+ CD8 cells per spleen (CD8# 3816800), Mouse 1
[13] = 2nd EXP, number of IFNg+ CD8 cells per spleen (CD8# 4765200), Mouse 3
[14] = 2nd EXP, number of IFNg+ CD8 cells per spleen (CD8# 5219500), Mouse 2
[15] = 2nd EXP, number of IFNg+ CD8 cells per spleen (CD8# 5392600), Mouse 6
[16] = Measured IC50 of each peptide, H-2D^b
[17] = Measured IC50 of each peptide, H-2K^b
[18] = epitopes labelled Kb, file clean_file9_IC50, unit inferred, read-out: IC50

| Molecule | IC50 [2, 16] [nM] | IC50 [3, 17] [nM] | further results |
| --- | --- | --- | --- |
| 2 (TLTSANHA[Met(O)]I) [compound 2] | – | – | IFNg# [1, 5]: 1002.82; IFNg# [1, 6]: 6300.91; IFNg# [1, 7]: 49270.8; IFNg# [1, 8]: 453.913; IFNg# [1, 9]: 8544.26; IFNg# [1, 10]: -2541; IFNg# [1, 11]: 765.09; IFNg# [1, 12]: 334.733; IFNg# [1, 13]: 3334.69; IFNg# [1, 14]: 2635.85; IFNg# [1, 15]: -650.348 |
| 19 (CFKFDHL) [compound 19] | – | – | IFNg# [1, 5]: 34310.2; IFNg# [1, 6]: 27968.8; IFNg# [1, 7]: 21326.6; IFNg# [1, 8]: 46581.9; IFNg# [1, 9]: 28197.3; IFNg# [1, 10]: 17050.1; IFNg# [1, 11]: 2143.61; IFNg# [1, 12]: 22289; IFNg# [1, 13]: 7728.2; IFNg# [1, 14]: 8361.64; IFNg# [1, 15]: 5535.5 |
| CC[C@H](C)[C@H](NC(=O)[C@H](CC(N)=O)NC(=O)[C@@H](N)CCSC)C(=O)N[C@@H](CCC(N)=O)C(=O)N[C@@H](Cc1ccccc1)C(=O)N[C@H](C(=O)N[C@@H](C)C(=O)N[C@H](C(=O)O)C(C)C)[C@@H](C)O [HA402–409] | 6180 | 3 | – |
| CSCC[C@H](NC(=O)[C@@H](NC(=O)[C@H](CCC(=O)O)NC(=O)[C@H](CCSC)NC(=O)[C@H](CC(N)=O)NC(=O)[C@H](CCC(=O)O)NC(=O)[C@H](CC(N)=O)NC(=O)[C@H](CO)NC(=O)[C@H](C)N)[C@@H](C)O)C(=O)O [NP366–374] | 18 | > 40000 | – |
| AGLKNDLLENL [M1_227–237] | 5280 | 3310 | – |
| HA-41-49 (VTVTHSVNL) | – | – | IC50 [4]: 872 nM; CTL response, ICS ([1]; Mouse1): 14900.8; CTL response, ICS ([1]; Mouse2): 4695.13; CTL response, ICS ([1]; Mouse3): 8913.09; CTL response, ICS ([1]; Mouse4): 22267.5; CTL response, ICS ([1]; Mouse5): 32844.3; CTL response, ICS ([1]; Mouse11): 2884.36; CTL response, ICS ([1]; Mouse12): 3836.33; CTL response, ICS ([1]; Mouse13): 2696.15; CTL response, ICS ([1]; Mouse14): 546.324; CTL response, ICS ([1]; Mouse15): 0; CTL response, ICS ([1]; Mouse16): 865.512 |
| IGRFYIQM [NP36–43] | 3300 | 1.9 | – |
| KNMEYDAV [PB1_653–660] | > 40000 | 156 | – |
| LSLRNPILV [PB1-F2_62–70] | 18 | 12400 | – |
| MGLIYNRM [M1_128–135] | > 40000 | 92.6 | – |
| NGITNKVNTVI [HA389–399] | 118 | 22000 | – |
| RTFSFQLI [NS2_114–121] | > 40000 | 4.7 | – |
| SFQDILLRM [NS2_8–16] | 10700 | 185 | – |
| SGPDNGAVAV [NA181–190] | 65 | 262 | – |
| SGPDNGAVAVL [NA181–191] | 64 | 585 | – |
| SQLKNNAKEI [HA467–476] | 173 | > 40000 | – |
| SSLENFRAYV [PA224–233] | 0.16 | 38 | – |
| SSLENFRAYV [PA-224-233Db] | – | – | IC50 ([2]; epitopes labelled Db, file clean_file9_IC50, unit inferred, read-out: IC50): 0.155 nM |
| SSLPYQNI [HA304–311] | > 40000 | 4.7 | – |
| SSYRRPVGI [PB1-703-711Kb] | – | – | IC50 [3, 18]: 1.94 nM |
| SSYRRPVGI [PB1_703–711] | 29000 | 1.9 | – |
| VTVTHSVNL [HA41–49] | 872 | 7.9 | – |
| VYIEVLHL [PB2-227-234Kb] | – | – | IC50 [3, 18]: 2.77 nM |
| VYIEVLHL [PB2_227–234] | 20900 | 2.8 | – |
| YQNIHPVTI [HA308–316] | 1970 | 1140 | – |
